Assay results from patent US11427548B2 (Arvinas Operations, Inc., priority 2015, dated 2022).
Where two headings read alike, the source gives them in different places.

Experiments:
Androgen Receptor [1] = molecular target: T1, Androgen Receptor (Homo sapiens, UniProt P10275); experiment: Androgen Receptor ELISA assay (PathScan AR ELISA) in VCaP cells: AR degradation, Dmax and DC50; type: cell-based
T1 construct: endogenous in cells; host or cells: VCaP cells
T1 sequence (P10275 1-920): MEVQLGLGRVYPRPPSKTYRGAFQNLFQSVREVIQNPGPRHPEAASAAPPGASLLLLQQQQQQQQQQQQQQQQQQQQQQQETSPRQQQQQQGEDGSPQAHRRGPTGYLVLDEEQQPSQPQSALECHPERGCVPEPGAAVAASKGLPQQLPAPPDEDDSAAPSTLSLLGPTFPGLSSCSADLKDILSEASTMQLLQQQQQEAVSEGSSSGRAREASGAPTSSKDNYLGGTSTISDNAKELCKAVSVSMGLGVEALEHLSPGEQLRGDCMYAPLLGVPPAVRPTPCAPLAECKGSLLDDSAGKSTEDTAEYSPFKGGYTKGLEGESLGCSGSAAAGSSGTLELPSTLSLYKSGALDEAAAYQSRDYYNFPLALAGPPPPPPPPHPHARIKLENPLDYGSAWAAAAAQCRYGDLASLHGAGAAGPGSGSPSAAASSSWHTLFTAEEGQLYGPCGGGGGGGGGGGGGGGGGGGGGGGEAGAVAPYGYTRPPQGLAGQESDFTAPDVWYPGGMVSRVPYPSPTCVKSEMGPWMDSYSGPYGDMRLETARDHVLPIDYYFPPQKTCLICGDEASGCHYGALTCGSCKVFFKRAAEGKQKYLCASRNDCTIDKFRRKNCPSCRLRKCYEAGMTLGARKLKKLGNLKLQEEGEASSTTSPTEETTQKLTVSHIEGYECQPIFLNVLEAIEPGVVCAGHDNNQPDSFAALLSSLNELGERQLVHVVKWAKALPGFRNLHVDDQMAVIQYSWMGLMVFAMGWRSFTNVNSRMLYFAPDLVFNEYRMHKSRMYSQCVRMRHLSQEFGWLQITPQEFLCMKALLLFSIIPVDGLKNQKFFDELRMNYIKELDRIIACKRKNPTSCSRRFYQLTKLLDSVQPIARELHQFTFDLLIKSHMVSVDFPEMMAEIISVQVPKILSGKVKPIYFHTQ
Outline: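 After 24 h exposure of VCaP cells (charcoal-stripped serum, 0.1 nM R1881 agonist, 0.1% DMSO) to seven half-log compound concentrations, residual AR in lysates was measured by PathScan ELISA (TMB absorbance, 450 nm). Cells were plated at 30,000/well and grown at least 3 days beforehand.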

Androgen Receptor [2] = molecular target: T2, Androgen Receptor (Homo sapiens, UniProt P10275+P40337, T878A); experiment: Androgen Receptor ELISA assay (PathScan AR ELISA) in LNCaP cells: AR degradation, Dmax and DC50; type: cell-based; details: for DC50: concentration that caused 50% Androgen Receptor degradation
T2 construct: Compounds have been evaluated in this assay in LNCaP and/or VCaP cells utilizing similar protocols; endogenous in cells; host or cells: LNCaP cells

[3] = highest percentage of Androgen Receptor degradation observed
[4] = highest percentage of Androgen Receptor degradation
[5] = read-out: VCaP DC50; VCaP cells; concentration that caused 50% Androgen Receptor degradation

T2 sequence (P10275 whole entry T878A): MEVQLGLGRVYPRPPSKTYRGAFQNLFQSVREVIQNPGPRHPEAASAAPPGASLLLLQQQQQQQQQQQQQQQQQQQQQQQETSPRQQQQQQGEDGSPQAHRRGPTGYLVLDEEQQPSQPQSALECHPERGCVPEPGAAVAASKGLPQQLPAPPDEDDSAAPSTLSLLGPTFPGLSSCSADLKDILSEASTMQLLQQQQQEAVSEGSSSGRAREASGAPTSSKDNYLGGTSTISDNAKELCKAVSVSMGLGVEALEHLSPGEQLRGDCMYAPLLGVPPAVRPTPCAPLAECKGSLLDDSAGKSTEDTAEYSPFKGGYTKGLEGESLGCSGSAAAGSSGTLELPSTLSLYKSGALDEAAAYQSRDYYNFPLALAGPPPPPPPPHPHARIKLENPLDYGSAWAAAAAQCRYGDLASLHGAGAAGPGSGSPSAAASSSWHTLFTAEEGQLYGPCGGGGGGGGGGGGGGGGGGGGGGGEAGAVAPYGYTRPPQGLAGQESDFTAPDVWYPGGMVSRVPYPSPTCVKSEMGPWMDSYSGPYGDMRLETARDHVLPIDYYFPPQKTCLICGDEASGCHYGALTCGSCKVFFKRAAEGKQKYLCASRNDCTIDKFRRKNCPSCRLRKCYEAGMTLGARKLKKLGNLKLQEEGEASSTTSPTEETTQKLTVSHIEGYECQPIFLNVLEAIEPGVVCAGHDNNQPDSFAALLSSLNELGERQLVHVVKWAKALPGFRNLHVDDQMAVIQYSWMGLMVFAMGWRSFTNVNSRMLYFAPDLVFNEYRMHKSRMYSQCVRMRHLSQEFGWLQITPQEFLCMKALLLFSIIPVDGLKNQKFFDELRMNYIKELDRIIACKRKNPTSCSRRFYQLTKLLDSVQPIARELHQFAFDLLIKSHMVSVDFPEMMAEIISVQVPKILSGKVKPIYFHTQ
T2 sequence (P40337 whole entry): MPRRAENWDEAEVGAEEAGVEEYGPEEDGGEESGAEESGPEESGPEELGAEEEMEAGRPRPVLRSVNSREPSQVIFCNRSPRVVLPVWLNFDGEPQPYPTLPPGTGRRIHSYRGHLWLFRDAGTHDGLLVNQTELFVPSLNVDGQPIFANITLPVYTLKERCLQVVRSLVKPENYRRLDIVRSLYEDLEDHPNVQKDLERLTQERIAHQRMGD
T2 sequence (Q15369 whole entry partner): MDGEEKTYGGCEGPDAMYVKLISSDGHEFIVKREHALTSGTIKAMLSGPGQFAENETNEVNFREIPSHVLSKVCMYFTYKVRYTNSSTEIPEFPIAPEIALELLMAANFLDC
T2 sequence (Q15370 whole entry partner): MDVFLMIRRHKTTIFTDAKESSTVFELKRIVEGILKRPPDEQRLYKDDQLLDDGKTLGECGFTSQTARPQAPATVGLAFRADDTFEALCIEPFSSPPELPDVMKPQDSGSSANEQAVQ

| Structure (SMILES) | DC50 (Androgen Receptor [1]; concentration that caused 50% Androgen Receptor degradation, VCaP cells; read-out: VCaP DC50) [nM] | VCaP Dmax (%) (Androgen Receptor [1]; highest percentage of Androgen Receptor degradation observed, VCaP cells) | DC50 (Androgen Receptor [2]) [nM] | LNCaP Dmax (%) (Androgen Receptor [2]; [3]) | Dmax (Androgen Receptor [1]; VCaP, read-out: VCaP Dmax (%)) [%] | DC50 (Androgen Receptor [1]; read-out: VCaP DC50; concentration that caused 50% Androgen Receptor degradation, VCaP cells) [nM] | Dmax (Androgen Receptor [2]; [3]) [%] | Dmax (Androgen Receptor [2]; [4]) [%] | DC50 (Androgen Receptor [1]; [5]) [nM] |
| --- | --- | --- | --- | --- | --- | --- | --- | --- | --- |
| Cc1ncsc1-c1ccc([C@H](C)NC(=O)[C@@H]2C[C@@H](O)CN2C(=O)[C@@H](NC(=O)COCCOCCOc2ccc(-c3ccc(N4C(=S)N(c5ccc(C#N)c(C(F)(F)F)c5)C(=O)C4(C)C)cc3F)cc2)C(C)(C)C)cc1 [Example 79, (2S,4R)-l-[(2S)-2-[2-(2-{2-[4-(4-{3-[4-cyano-3-(trifluoromethyl)phenyl]-5,5-dimethyl-4-oxo-2-sulfanylideneimidazolidin-1-yl}-2-fluorophenyl)phenoxy]ethoxy}ethoxy)acelamido]-3,3-dimethylbutanoyl]-4-hydroxy-N-[(1S)-l-[4-(4-methyl-l,3-thiazol-5-yl)phenyl]ethyl]pyrrolidine-2-carboxamide] | < 50 | +++ (51% ≤ Dmax ≤ 70%) | < 50 | ++++ (71% ≤ Dmax) |  |  |  |  |  |
| Cc1ncsc1-c1ccc(CNC(=O)[C@@H]2C[C@@H](O)CN2C(=O)[C@@H](NC(=O)COCCCCOCCN2CCC(c3ccc(N4C(=S)N(c5ccc(C#N)c(C(F)(F)F)c5)C(=O)C4(C)C)cc3)CC2)C(C)(C)C)cc1 [Example 81, (2S,4R)-1-((S)-2-(2-(4-(2-(4-(4-(3-(4-cyano-3-(trifluoromethyl)phenyl)-5,5-dimethyl-4-oxo-2-thioxoimidazolidin-1-yl)phenyl)piperidin-1-yl)ethoxy)butoxy)acetamido)-3,3-dimethylbutanoyl)-4-hydroxy-N-(4-(4-methylthiazol-5-yl)benzyl)pyrrolidine-2-carboxamide] |  |  | > 501 |  | < 25 | 51 to 500 | 51 to 70 |  |  |
| Cc1ncsc1-c1ccc(CNC(=O)[C@@H]2C[C@@H](O)CN2C(=O)[C@@H](NC(=O)COCCCOCCCOc2ccc(N3C(=S)N(c4ccc(C#N)c(C(F)(F)F)c4)C(=O)C3(C)C)cc2)C(C)(C)C)cc1 [Example 238] |  |  | 51 to 500 |  | < 25 |  |  | 51 to 70 |  |
| Cc1ncsc1-c1ccc(CNC(=O)[C@@H]2C[C@H](O)CN2C(=O)[C@@H](NC(=O)COCCCOCCCCCOc2ccc(N3C(=S)N(c4ccc(C#N)c(C(F)(F)F)c4)C(=O)C3(C)C)cc2)C(C)(C)C)cc1 [Example 242] |  |  | > 501 |  | 26 to 50 |  |  | 26 to 50 | > 501 |
| Cc1ncsc1-c1ccc(CNC(=O)[C@@H]2C[C@@H](O)CN2C(=O)[C@@H](NC(=O)COCCOCCCCCOc2ccc(N3C(=S)N(c4ccc(C#N)c(C(F)(F)F)c4)C(=O)C3(C)C)cc2)C(C)(C)C)cc1 [Example 247] |  |  | < 50 |  | > 71 |  |  | > 71 | < 50 |
| Cc1ncsc1-c1ccc(CNC(=O)[C@@H]2C[C@@H](O)CN2C(=O)[C@@H](NC(=O)CCCOCCOc2ccc(-c3ccc(N4C(=S)N(c5ccc(C#N)c(C(F)(F)F)c5)C(=O)C4(C)C)cc3)cc2)C(C)(C)C)cc1 [Example 260] |  |  | 51 to 500 |  | 26 to 50 |  |  | > 71 | < 50 |
| Cc1ncsc1-c1ccc(CNC(=O)[C@@H]2C[C@@H](O)CN2C(=O)[C@@H](NC(=O)c2cccc(OCCCCOc3ccc(N4C(=S)N(c5ccc(C#N)c(C(F)(F)F)c5)C(=O)C4(C)C)cc3)c2)C(C)(C)C)cc1 [Example 278] |  |  | 51 to 500 |  | 51 to 70 |  |  | > 71 | < 50 |
| Cc1ncsc1-c1ccc(CNC(=O)[C@@H]2C[C@@H](O)CN2C(=O)[C@@H](NC(=O)COCCCOCCOc2cccc(-c3ccc(N4C(=S)N(c5ccc(C#N)c(C(F)(F)F)c5)C(=O)C4(C)C)cc3)c2)C(C)(C)C)cc1 [Example 288] |  |  | < 50 |  | 26 to 50 |  |  | > 71 | < 50 |
| Cc1ncsc1-c1ccc(CNC(=O)[C@@H]2C[C@@H](O)CN2C(=O)[C@@H](NC(=O)CCc2ccc(OCCCOc3ccc(N4C(=S)N(c5ccc(C#N)c(C(F)(F)F)c5)C(=O)C4(C)C)cc3)cc2)C(C)(C)C)cc1 [Example 292] |  |  | 51 to 500 |  | 26 to 50 |  |  | 51 to 70 | 51 to 500 |
| Cc1ncsc1-c1ccc(CNC(=O)[C@@H]2C[C@@H](O)CN2C(=O)[C@@H](NC(=O)COCCCCOC2CCN(C(=O)c3ccc(N4C(=S)N(c5ccc(C#N)c(C(F)(F)F)c5)C(=O)C4(C)C)cc3)CC2)C(C)(C)C)cc1 [Example 293] |  |  | 51 to 500 |  | < 25 |  |  | 51 to 70 |  |
| Cc1ncsc1-c1ccc(CNC(=O)[C@@H]2C[C@@H](O)CN2C(=O)[C@@H](NC(=O)COCCCCCOC2CCN(C(=O)c3ccc(N4C(=S)N(c5ccc(C#N)c(C(F)(F)F)c5)C(=O)C4(C)C)cc3)CC2)C(C)(C)C)cc1 [Example 294] |  |  | 51 to 500 |  | 26 to 50 |  |  | 26 to 50 | 51 to 500 |
| Cc1ncsc1-c1ccc(CNC(=O)[C@@H]2C[C@@H](O)CN2C(=O)[C@@H](NC(=O)COCCCCCOCCCOc2ccc(N3C(=S)N(c4ccc(C#N)c(C(F)(F)F)c4)C(=O)C3(C)C)cc2)C(C)(C)C)cc1 [Example 295] |  |  | < 50 |  | 26 to 50 |  |  | > 71 | < 50 |
| Cc1ncsc1-c1ccc(CNC(=O)[C@@H]2C[C@@H](O)CN2C(=O)[C@@H](NC(=O)COCCOc2cccc(CCCOc3ccc(N4C(=S)N(c5ccc(C#N)c(C(F)(F)F)c5)C(=O)C4(C)C)cc3)c2)C(C)(C)C)cc1 [Example 296] |  |  | 51 to 500 |  | 26 to 50 |  |  | > 71 | < 50 |
| Cc1ncsc1-c1ccc(CNC(=O)[C@@H]2C[C@@H](O)CC2C(=O)[C@H](C(C)C)N2Cc3ccccc3C2=O)c(OCCOC2CCCC[C@@H]2OCCOc2ccc(N3C(=S)N(c4ccc(C#N)c(C(F)(F)F)c4)C(=O)C3(C)C)cc2)c1 (some centres unmarked) [Example 297] |  |  | > 501 |  | 26 to 50 |  |  | 26 to 50 |  |
| Cc1ncsc1-c1ccc(CNC(=O)[C@@H]2C[C@@H](O)CN2C(=O)[C@@H](NC(=O)Cc2cccc(OCCCOCCOc3ccc(N4C(=S)N(c5ccc(C#N)c(C(F)(F)F)c5)C(=O)C4(C)C)cc3)c2)C(C)(C)C)cc1 [Example 298] |  |  | 51 to 500 |  | 26 to 50 |  |  | 51 to 70 | 51 to 500 |
| Cc1ncsc1-c1ccc(CNC(=O)[C@@H]2C[C@@H](O)CN2C(=O)[C@H](C(C)C)N2Cc3c(CCCOCCOc4ccc(N5C(=S)N(c6ccc(C#N)c(C(F)(F)F)c6)C(=O)C5(C)C)cc4)cccc3C2=O)cc1 [Example 299] |  |  | 51 to 500 |  | 26 to 50 |  |  | > 71 |  |
| Cc1ncsc1-c1ccc(CNC(=O)[C@@H]2C[C@@H](O)CN2C(=O)[C@@H](NC(=O)CCCOCCOCCCOc2ccc(N3C(=S)N(c4ccc(C#N)c(C(F)(F)F)c4)C(=O)C3(C)C)cc2)C(C)(C)C)cc1 [Example 300] |  |  | < 50 |  | 51 to 70 |  |  | 51 to 70 | < 50 |
| Cc1ncsc1-c1ccc(CNC(=O)[C@@H]2C[C@@H](O)CN2C(=O)[C@@H](NC(=O)CCCOCCCOCCCOc2ccc(N3C(=S)N(c4ccc(C#N)c(C(F)(F)F)c4)C(=O)C3(C)C)cc2)C(C)(C)C)cc1 [Example 301] |  |  | < 50 |  | 51 to 70 |  |  | 51 to 70 |  |
| Cc1ncsc1-c1ccc(CNC(=O)[C@@H]2C[C@@H](O)CN2C(=O)[C@@H](NC(=O)CCCOc2ccc(CCOc3ccc(N4C(=S)N(c5ccc(C#N)c(C(F)(F)F)c5)C(=O)C4(C)C)cc3)cc2)C(C)(C)C)cc1 [Example 302] |  |  | 51 to 500 |  | 51 to 70 |  |  | > 71 | < 50 |
